The values that follow are results of earlier work, collected in publication PMC5915681 (PLoS ONE, 2018).

Details of this series: method as in PMID 24450858, PMID 24450857.

Each structure is given as a SMILES string.

Consider `CC[C@H](Nc1ncnc2[nH]cnc12)c1nc2cccc(F)c2c(=O)n1-c1ccccc1` [idelalisib, Idelalisib], for which the side effects entry is “hepatotoxicity and gastrointestinal toxicity”.
